Source: patent US8604076B2, “Method for producing a pharmaceutical composition comprising rotigotine” (UCB Pharma GmbH, priority 2000, dated 2013)

Legend:
[1] = aqueous solution (5% dextrose); cited from earlier work
[2] = release of N-0923 from the depots in the monkey, dose versus plasma level; format: in vivo, Cynomolgus monkeys; details: oily crystalline suspensions, FIG. 4, after 3 and 85 daily applications
Description: Cynomolgus monkeys were given daily subcutaneous bolus injections of oily N-0923 crystalline suspensions of the following composition: The application was performed daily in dosages of 0.25, 1 and 4 mg/kg. 2, 6 and 24 hours after the 3rd and 85th application plasma samples were taken and analyzed using LC-MS-MS.

[3] = distinct first-pass effect; cited from earlier work
[4] = monkeys, aqueous solution; cited from earlier work
[5] = release of N-0923 from the depot form, plasma level and bioavailability; format: in vivo; details: depot formulation according to the invention, read-out: bioavailability of the pharmaceutical composition according to the invention
Description: Sprague-Dawley rats were given subcutaneous bolus injections of an oily N-0923 crystalline suspension of the following composition:
6, 24 and 48 hours after the 2nd and 46th administration plasma samples were taken and the N-0923 concentration was analyzed using LC-MS-MS. The readings from 6 animals were averaged.
The test conditions were identical to those in implementation example 5 except that every 48 hours a dose of 12.5 mg N-0923 per kg body weight was applied.
Readings were taken 2, 4, 8, 24, 32 and 48 hours after the 22nd application and were quantified.

relation of active-agent plasma levels to the dose introduced in the body [2]: largely linear relation
bioavailability [5]: > 70%
Compound: CCCN(CCc1cccs1)[C@H]1CCc2c(O)cccc2C1 [N-0923, S(-)-2-(N-propyl-N-2-thienylethylamino)-5-hydroxytetralin]
time for which the subcutaneous injection was effective [1]: 60 to 70 min
bioavailability after oral administration [3]: about 0.5%
half-time value after intravenous injection [4]: 52 min
